Data from patent US11124536B2, “Uridine nucleoside derivatives, compositions and methods of use” (Tufts University, priority 2013, dated 2021).
“Also recorded” adds a separate entry of the source.

Columns and labels:
P2Y6 receptor = biological target: T1, P2Y6 receptor (Homo sapiens, UniProt Q15077); experiment: Activation of P2Y6 receptor: receptor-induced Ca2+ changes with fluo-4; type: cell-based
T1 construct: expressed in transfected cells; host or cells: 1321N1 human astrocytoma cells
Protocol: Synthetic ligands were tested for activation of P2Y6 receptor by measuring receptor induced Ca^2+ changes with the fluorescent Ca^2+ indicator fluo-4. 1321N1 human astrocytoma cell lines either expressing P2Y2, P2Y4 or P2Y6 receptors were plated into 24-well plates. Two days after plating, fluorometric measurements were made and responses of cells to a serial dilution of ligands were determined. P2Y6 receptor mediated Ca^2+ fluorescent change was determined by normalized accumulation of fluorescent change of 3 timepoints after ligand administration subtracted by value from ACSF control. Changes in fluorescent intensity were plotted corresponding to ligand concention in GraphPad. Dose-response curve and EC50 for each ligand was estimated using nonlinear curve fit and Sigmoidal dose-response analysis. […]
Synthetic ligands were tested for activation of P2Y6 receptor by measuring receptor induced Ca^2+ changes with the fluorescent Ca^2+ indicator fluo-4, and results are shown in FIG. 10(A)-(K). […] Two days after plating, fluorometric measurements were made and responses of cells to a serial dilution of ligands were determined. P2Y6 receptor mediated Ca^2+ fluorescent change was determined by normalized accumulation of fluorescent change of 3 timepoints after ligand administration subtracted by value from ACSF control. […]

PSAPP mice [1] = experiment: Postmortem immunohistochemistry of amyloid beta plaque load in cortex and hippocampus; type: in vivo
Protocol: Mice were perfused transcardially with 4% paraformaldehyde and 40 μm Coronal sections were collected. Sections were sequentially incubated in 0.3% H2O2 for 10 minutes, blocking solution for 2 hrs, blocking solution containing the primary antibody (rabbit anti-beta1-42; rabbit anti-beta1-40, from Chemicon International and rat anti-CD45) for 48 hours at 4° C., and blocking solution containing biotinylated antibody or fluorescently-labeled antibody for 2 hours at room temperature. Sections were visualized in a bright field microscope or a confocal microscope, and the optical density was obtained using MetaMorph software.
To generate these graphs showing plaque load, mice were euthanized, brain sections cut and antibodies directed against Aβ 42 were used to disclose Aβ plaques. Images were acquired digitally and an algorithm was applied to threshold the image so that plaques were isolated from the background. The algorithm then calculated the percent area of the field of view occupied by the plaques.
Brain samples were collected for Abeta analysis with immunostaining. Brains samples were collected after transcardial perfusion with phosphate buffer and 4% paraformaldehyde. Floating brain sections (40 micron) were collected using a microtome. Immunostaining for Aβ40 and Aβ42 were performed according to previously established protocol. Images with DAB staining were collected with brightfield microscopy and analyzed with ImageJ Macro. All data analysis and statistics were performed in GraphPad Prism 6.0.

PSAPP mice [2] = experiment: Contextual fear conditioning test (freezing %); type: in vivo
Protocol: On day one, animals were trained in a fear conditioning apparatus for a total of 7 minutes with a two-pairing paradigm of cue and mild foot shock (a 30-s acoustic-conditioned stimulus, 80 dB; a 2-s shock stimulus, 0.5 mA). To evaluate contextual fear learning, the animals were returned to the training context 24 hours post-training, and freezing behavior was scored for 5 minutes. Freezing behavior was monitored by MotorMonitor (Hamilton Kinder) and scored every 5 seconds.
This represents a decrease in the cognitive impairment observed in the untreated mice.

human THP-1 cells = experiment: Cytokine release from THP-1 cells into culture medium (multiplex cytokine analysis); type: cell-based
Protocol: THP-1 cells, a human cell line derived from monocytes, were treated in vitro with vehicle, the P2Y6 receptor antagonist MRS 2578, or compound 5, singly or in combination. THP-1 cells were seeded in 24 well plates at a density of 4×10^5 cells/well in culture medium for 24 hours. Thereafter, vehicle, compound 5, or MRS 2578 (singly or in combination) were added to the cultures for 24 hours. Subsequently the culture medium was aspirated and subjected to multiplex cytokine analysis. Data are presented as means+/−sem. MRS 2578 has a molecular weight of about 472 and is also described using CAS number 711019-86-2.

PSAPP mice [3] = experiment: Hippocampal long-term potentiation (LTP) recording, CA1; type: in vivo
Protocol: Hippocampal slices (350 μm thick) were prepared from 6-month-old PSAPP mice. Baseline responses were obtained every 10 seconds and Input-output (I/O) curves, paired-pulse modification and LTP were successively measured. The stimulation intensity was set to a level that gives a value of 30% of the maximum obtained. LTP were induced by high frequency stimulation (HFS, 100 pulses at 100 Hz, four times) or by theta-burst stimulation (TBS, 10 bursts at 5 Hz, repeated 10 times in 15 s intervals).
Accumulated evidence has shown that amyloid peptides naturally secreted or isolated from Alzheimer's brains impair synaptic plasticity, especially hippocampal long-term potentiation (Walsh et al., 2002). Therefore, we further performed LTP recordings in PASPP mice and investigated whether P2Y6 receptor-mediated plaque clearance affects synaptic plasticity. […] First, it was observed that LTP at the schaffer collateral synapse within the CA1 region was depressed in PSAPP mice, as compared with littermates (FIG. 8(A)).

PSAPP mice [4] = experiment: Two-photon in vivo imaging of methoxyX04-labeled amyloid plaques in barrel cortex; conditions: UDP vs ACSF
From the text: In this study, PSAPP mice were anesthetized using isoflurane and a thin-skull preparation was used to minimize the surface damage. Amyloid plaques were visualized with methoxyX04 labeling and blood plasma was labeled with Rhodamine dextran to facilitate re-localization of the same imaging area. Stack images were obtained using a two-photon system (Prairie Technologies) with excitation at 850 nm. The emission was detected by external photomultiplier tubes (525/70; DLCP 575; 607/45 nm).
Animals were anesthetized and immobilized in a stereotaxic frame. For each injection, 1 μl of 10 mM UDP or other suitable compounds in artificial cerebrospinal fluid (ACSF) as the vehicle were injected intraventricularly using the following coordinates: AP 0.2 mm, ML 1 mm, and DV 2.2 mm.
To evaluate the effect of UDP on plaque burden, two-photon microscopy was used to assess the amyloid plaques in the barrel cortex in living PSAPP mice. Amyloid plaques were stained by systemically administered methoxy-X04. One day prior to imaging, PSAPP mice were injected with methoxyX04 to label the amyloid plaques. On the imaging day, to facilitate the re-location of the same imaging area, blood plasma was labeled with Rhodamine dextran. Images were obtained from the same start- and end-point to ensure the same image volume. […]

T1 sequence (Q15077 whole entry): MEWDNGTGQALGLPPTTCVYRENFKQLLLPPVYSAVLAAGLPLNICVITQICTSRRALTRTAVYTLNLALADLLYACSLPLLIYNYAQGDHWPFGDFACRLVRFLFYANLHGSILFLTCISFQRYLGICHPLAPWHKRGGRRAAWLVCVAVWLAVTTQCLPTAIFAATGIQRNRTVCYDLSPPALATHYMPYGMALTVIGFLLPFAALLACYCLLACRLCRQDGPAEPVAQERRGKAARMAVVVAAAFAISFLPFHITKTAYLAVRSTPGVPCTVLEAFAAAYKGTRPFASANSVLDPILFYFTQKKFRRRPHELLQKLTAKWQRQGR

**Q.** For O=c1ccn([C@@H]2O[C@H](COP(=O)(O)OP(=O)(O)O)[C@@H](O)[C@H]2O)c(=O)n1Cc1noc2ccccc12, which “elevating Ca2+ levels in cells expressing P2Y6 receptors” value (P2Y6 receptor; 1321N1 human astrocytoma cells expressing P2Y6) is on record?
**A.** only effective

**Q.** What does the source list for O=C(Cn1c(=O)ccn([C@@H]2O[C@H](COP(=O)(O)OP(=O)(O)O)[C@@H](O)[C@H]2O)c1=O)c1ccccc1 [3-phenacyl-UDP, reference compound]?
**A.** effects on the efficacy endpoint at the higher dose (PSAPP mice [1]; 1 mg/kg, one week of daily treatment): smaller effects; β1-40 staining after treatment stopped (PSAPP mice [1]; 6 consecutive days i.p. then stopped for 2 weeks (6+2 weeks group), level still lower than saline vehicle): rebounded; immunoreactivity of β1-40 in cortex (PSAPP mice [1]; i.p. for 4 and 6 consecutive days, FIG. 6A): significantly decreased; immunoreactivity of β1-40 in hippocampus (PSAPP mice [1]; i.p. for 4 and 6 consecutive days, FIG. 6B): significantly decreased; total freezing percentage in context test (PSAPP mice [2]; chronic injection, two different doses): increased; memory deficit (contextual fear conditioning) compared to vehicle (PSAPP mice [2]; one week treatment with 1 μg/kg, FIG. 9C): rescued the memory deficit

**Q.** With S=C=Nc1cccc(NC(=S)NCCCCNC(=S)Nc2cccc(N=C=S)c2)c1 [MRS 2578] as the compound, how does the “effect of antagonist on Ca2+ signals elevated by the sodium salt of the diphosphate derivative of compound 5” value (P2Y6 receptor; P2Y6 receptor expressing 1321N1 cells) read?
**A.** attenuated

**Q.** What about the “release of fractalkine, PDGF-BB, and IL-7 (concentration in culture medium)” value (human THP-1 cells; 24 hours treatment vs vehicle, FIG. 25) of the same compound?
**A.** increased

**Q.** What about the “release of IL-7 from human THP-1 cells” value (human THP-1 cells; MRS 2578 alone, 24 hours, FIG. 26) of the same compound?
**A.** increased

**Q.** What about the “effect of co-treatment on the decrease of IL-7/cytokine release caused by compound 5” value (human THP-1 cells; compound 5 plus MRS 2578, FIG. 26) of the same compound?
**A.** blocked; also recorded: abrogated

**Q.** What does the source list for O=c1ccn([C@@H]2O[C@H](COP(=O)(O)OP(=O)(O)O)[C@@H](O)[C@H]2O)c(=O)[nH]1 [UDP, uridine diphosphate]?
**A.** LTP deficit at schaffer collateral synapse, CA1 (PSAPP mice [3]; acute UDP vs ACSF, HFS, FIG. 8B): reversed; field excitatory postsynaptic potential (fEPSP), last 15 min potentiation (PSAPP mice [3]; acute UDP, comparable to littermates, FIG. 8C): significant increase; day 4/day 1 ratios of plaque load (PSAPP mice [4]; FIG. 2D): significant reductions; number of plaques (day 4/day 1 ratios) (PSAPP mice [4]; FIG. 2E): significant reductions; decrease in plaque load in the cortex, β1-42 antibody (PSAPP mice [1]; acute UDP i.c.v., P<0.01): 48%; decrease in plaque load in the hippocampus, β1-42 antibody (PSAPP mice [1]; acute UDP i.c.v., P<0.05): 47%; decrease in plaque load in the hippocampus, β1-40 antibody (PSAPP mice [1]; acute UDP i.c.v., p<0.01): 62%; decrease in plaque load in the cortex, β1-40 antibody (PSAPP mice [1]; acute UDP i.c.v., p<0.05): 60%; freezing behavior compared to ACSF treatment (PSAPP mice [2]; UDP-treatment 3 days prior to the test, FIG. 7C): significantly improved
